Results from BindingDB's records for doi:10.1021/jm00015a023 (Research Triangle Institute, 1995).

Tests used:
[1] = Binding affinity was measured on Sigma receptor type 2 using [3H]- DTG as radioligand
[2] = Binding affinity was measured on Sigma receptor type 1 using [3H]- pentazocine as radioligand
[3] = molecular target: Sigma non-opioid intracellular receptor 1 (Homo sapiens, UniProt Q99720); experiment: Binding affinity was measured on Sigma receptor type 1 using [3H]- pentazocine as radioligand
Sequence of Sigma non-opioid intracellular receptor 1 (Q99720 whole entry): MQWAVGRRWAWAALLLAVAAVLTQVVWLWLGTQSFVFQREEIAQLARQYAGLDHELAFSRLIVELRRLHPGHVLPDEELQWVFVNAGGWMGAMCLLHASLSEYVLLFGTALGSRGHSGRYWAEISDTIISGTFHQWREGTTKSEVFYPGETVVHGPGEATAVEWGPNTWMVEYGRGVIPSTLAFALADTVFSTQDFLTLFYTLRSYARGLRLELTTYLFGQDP

[4] = Binding affinity was measured on Sigma receptor type 1 using [3H]- pentazocine as radioligand; remark: listed apart in the source

| SMILES | Ki [1] [nM] | Ki [2] [nM] | Ki [3] [nM] | Ki [4] [nM] |
| --- | --- | --- | --- | --- |
| CC(C)=CCN1CCC2(C)c3c(ccc(O)c3Cl)CC1C2C (stereo not given) [7-Chloro-6,11-dimethyl-3-(3-methyl-but-2-enyl)-1,2,3,4,5,6-hexahydro-2,6-methano-benzo[d]azocin-8-ol] | 4960 | 2.62 | – | – |
| CC1C2Cc3ccc(O)c(Br)c3C1(C)CCN2Cc1ccccc1 (stereo not given) [3-Benzyl-7-bromo-6,11-dimethyl-1,2,3,4,5,6-hexahydro-2,6-methano-benzo[d]azocin-8-ol] | 346 | 1.75 | – | – |
| CC(C)=CCN1CCC2(C)c3c(ccc(O)c3Br)CC1C2C (stereo not given) [7-Bromo-6,11-dimethyl-3-(3-methyl-but-2-enyl)-1,2,3,4,5,6-hexahydro-2,6-methano-benzo[d]azocin-8-ol] | 283 | 2.49 | – | – |
| CC1C2Cc3cc(Br)c(O)cc3C1(C)CCN2Cc1ccccc1 (stereo not given) [3-Benzyl-9-bromo-6,11-dimethyl-1,2,3,4,5,6-hexahydro-2,6-methano-benzo[d]azocin-8-ol] | 1220 | 68.6 | – | – |
| CC(C)=CCN1CCC2(C)c3c(cc(Br)c(O)c3Br)CC1C2C (stereo not given) [7,9-Dibromo-6,11-dimethyl-3-(3-methyl-but-2-enyl)-1,2,3,4,5,6-hexahydro-2,6-methano-benzo[d]azocin-8-ol] | 211 | 120 | – | – |
| CC(C)=CCN1CCC2(C)c3cc(O)c(I)cc3CC1C2C (stereo not given) [9-Iodo-6,11-dimethyl-3-(3-methyl-but-2-enyl)-1,2,3,4,5,6-hexahydro-2,6-methano-benzo[d]azocin-8-ol] | – | – | 35.2 | – |
| CC1C2Cc3cc(Br)c(O)c(Br)c3C1(C)CCN2Cc1ccccc1 (stereo not given) [3-Benzyl-7,9-dibromo-6,11-dimethyl-1,2,3,4,5,6-hexahydro-2,6-methano-benzo[d]azocin-8-ol] | 2010 | – | – | 70.6 |
| CC1C2Cc3cc(I)c(O)cc3C1(C)CCN2Cc1ccccc1 (stereo not given) [3-Benzyl-9-iodo-6,11-dimethyl-1,2,3,4,5,6-hexahydro-2,6-methano-benzo[d]azocin-8-ol] | 597 | 231 | – | – |
| CC(C)=CCN1CCC2(C)c3cc(O)c(Br)cc3CC1C2C (stereo not given) [9-Bromo-6,11-dimethyl-3-(3-methyl-but-2-enyl)-1,2,3,4,5,6-hexahydro-2,6-methano-benzo[d]azocin-8-ol] | – | – | 144 | – |
| CC1C2Cc3ccc(O)c(Cl)c3C1(C)CCN2Cc1ccccc1 (stereo not given) [3-Benzyl-7-chloro-6,11-dimethyl-1,2,3,4,5,6-hexahydro-2,6-methano-benzo[d]azocin-8-ol] | 764 | 1.72 | – | – |
| CC1C2Cc3cc(Cl)c(O)c(Cl)c3C1(C)CCN2Cc1ccccc1 (stereo not given) [3-Benzyl-7,9-dichloro-6,11-dimethyl-1,2,3,4,5,6-hexahydro-2,6-methano-benzo[d]azocin-8-ol] | 2170 | 71.5 | – | – |
